This passage reports IC50 results from patent publication US7183277B2, “Carboxylic acid amides” (Merck Patent GmbH, priority 2002, dated 2007).

Each structure is given as a SMILES string. Where a name gives a salt, the structure may show the parent alone.

In assay [1] the target is FXa (Homo sapiens, UniProt P00742). The assay can be described thus: Factor Xa inhibition (FXa-IC50). The class given is biochemical. From the text:
The inhibition of factor Xa by the compounds according to the invention and the measurement of the anticoagulant and antithrombotic activity can be determined by conventional in-vitro or in-vivo methods. A suitable method is described, for example, by J. Hauptmann et al. in Thrombosis and Haemostasis 1990, 63, 220–223.
The inhibition of factor Xa can be measured, for example, by the method of T. Hara et al. in Thromb. Haemostas. 1994, 71, 314–319.

The target in assay [2] is TF/FVIIa (Homo sapiens, UniProt P08709). The assay can be described thus: TF/FVIIa inhibition (TF/FVIIa-IC50). The class given is biochemical. From the text: The inhibition of factor VIIa by the compounds according to the invention and the measurement of the anticoagulant and antithrombotic activity can be determined by conventional in-vitro or in-vivo methods. A conventional method for the measurement of the inhibition of factor VIIa is described, for example, by H. F. Ronning et al. in Thrombosis Research 1996, 84, 73–81.
Chain of TF/FVIIa (P08709 213-466 limits assumed): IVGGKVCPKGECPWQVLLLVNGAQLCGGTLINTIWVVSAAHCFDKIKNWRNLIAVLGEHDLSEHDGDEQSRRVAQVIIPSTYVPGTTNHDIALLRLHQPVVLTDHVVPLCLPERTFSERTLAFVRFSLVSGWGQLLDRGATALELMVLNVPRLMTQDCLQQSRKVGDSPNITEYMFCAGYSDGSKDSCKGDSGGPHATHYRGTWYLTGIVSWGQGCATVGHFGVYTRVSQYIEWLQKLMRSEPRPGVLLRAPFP
Chain of TF/FVIIa (P08709 61-212 partner limits assumed): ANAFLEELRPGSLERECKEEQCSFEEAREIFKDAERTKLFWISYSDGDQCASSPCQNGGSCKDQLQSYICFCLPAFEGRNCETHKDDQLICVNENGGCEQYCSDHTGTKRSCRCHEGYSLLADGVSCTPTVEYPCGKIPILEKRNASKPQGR
Chain of TF/FVIIa (P13726 33-295 partner): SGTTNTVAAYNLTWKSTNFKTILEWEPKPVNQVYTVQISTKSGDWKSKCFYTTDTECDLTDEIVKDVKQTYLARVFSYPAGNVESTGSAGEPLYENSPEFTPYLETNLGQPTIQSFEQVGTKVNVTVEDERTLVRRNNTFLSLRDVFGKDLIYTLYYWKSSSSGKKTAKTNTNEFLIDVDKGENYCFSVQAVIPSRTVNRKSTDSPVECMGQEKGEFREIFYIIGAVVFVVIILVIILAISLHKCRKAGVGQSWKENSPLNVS

Chain of FXa (P00742 235-488 limits assumed): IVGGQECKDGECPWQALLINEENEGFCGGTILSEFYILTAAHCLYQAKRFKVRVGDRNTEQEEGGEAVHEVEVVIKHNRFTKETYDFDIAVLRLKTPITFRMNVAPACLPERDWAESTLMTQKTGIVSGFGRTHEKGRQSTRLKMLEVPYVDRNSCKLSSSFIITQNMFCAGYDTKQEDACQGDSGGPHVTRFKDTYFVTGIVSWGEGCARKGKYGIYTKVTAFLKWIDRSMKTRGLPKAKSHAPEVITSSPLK
Chain of FXa (P00742 41-179 partner limits assumed): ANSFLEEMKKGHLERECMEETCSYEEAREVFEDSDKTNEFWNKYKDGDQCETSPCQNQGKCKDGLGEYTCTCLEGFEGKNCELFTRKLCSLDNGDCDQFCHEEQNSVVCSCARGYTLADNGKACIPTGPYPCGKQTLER

A word on the IC50: it is the concentration needed to halve the response being measured. The low end stands for greater potency in that assay, the high end for weaker potency in that assay. Regarding `CON=C1CCCCN1c1ccc(NC(=O)[C@H](OC(=O)Nc2ccc(Cl)cc2)c2ccccc2)cc1` [AA, (R)-2-[N-(4-chlorophenyl)carbamoyloxy]-N-[4-(2-methoxyiminopiperidin-1-yl)phenyl]-2-phenylacetamide], the results for the IC50 in assay [1] and in assay [2] were 220 nM and 290 nM, respectively.
On the same counts, the results for `N=C1CCCCN1c1ccc(NC(=O)[C@H](OC(=O)Nc2ccc(Cl)cc2)c2ccccc2)cc1` [AB, (R)-2-[N-(4-chlorophenyl)carbamoyloxy]-N-[4-(2-iminopiperidin-1-yl)phenyl]-2-phenylacetamid, hydrochloride] are 58 nM and 99 nM.
On the same counts, the results for `Cc1cc(NC(=O)[C@H](NC(=O)Nc2ccc(Cl)cc2)c2ccccc2)ccc1N1CCCC1=N` [BA, (R)-2-[3-(4-chlorophenyl)ureido]-N-[4-(2-iminopyrrolidin-1-yl)-3-methylphenyl]-2-phenylacetamide, hydrochloride] are 680 nM and 490 nM.
Compound `N#CN=C1NCCN1c1ccc(NC(=O)[C@@H](NC(=O)Nc2ccc(Cl)cc2)c2cccs2)cc1` [CA, (R)-2-[3-(4-chlorophenyl)ureido]-N-[4-(2-cyaniminoimidazolidin-1-yl)phenyl]-2-thiophen-2-ylacetamide] had an IC50 in assay [1] of 54 nM. This lies in the double-digit nanomolar range.
